Data set [1] deals with TNF alpha release from human PBMCs. Briefly: Inhibition of TNF alpha release from human PBMCs. The format is cell-based. Particulars: PBMC, LPS 1 μg/ml, 18 hours, AlphaLISA. On the procedure:
PBMC were isolated from fresh buffy coats by density centrifugation using lymphoprep (Medinor AB, cat no 1019818) tubes. Isolated PBMCs were washed in assay medium (RPMI1640 with 25 mM HEPES, 1% pen/strep, 200 mM L glutamine and 10% Foetal calf serum). Surplus PBMCs were frozen in medium containing extra 10% foetal calf serum and 5% DMSO. On the assay day, fresh cells or cryopreserved cells after thawing were washed in serum free medium (RPMI1640 with 25 mM HEPES, 1% pen/strep, 200 mM L glutamine and 0.5% human serum albumin) and counted, in order to determine the fraction of living cells (generally >95%).
Test compounds were diluted in DMSO over seven orders of magnitude, further diluted in serum-free medium and distributed into wells of 384 well tissue culture plates. LPS was added to a final concentration of 1 μg/ml to the cells. Immediately thereafter titrated test compounds were added and incubated for 18 hours at 37° C.
The level of TNF-a in the culture supernatant was quantitated by AlphaLISA (Perkin Elmer). 2-(3,5-dichloro-4-pyridinyl)-1-(7-methoxyspiro[1,3-benzodioxole-2,1′-cyclopentan]-4-yl)-ethanone (CAS 185406-34-2) at 100×IC50 was used to define the assay window.
Data were processed by sigmoidal curve fitting. EC50 and Emax were determined from the curve fits.
For orientation: Alpha assays give light when donor and acceptor beads are brought close together.

Data set [2] is described as follows: Human liver microsomes (HLM) assay. The format is in vitro ADME. The conditions noted are these: hepatic extraction ratio; 0.5 μM compound, 0.5 mg/mL microsomes, NADPH, 37° C. As to the method:
Incubations of test compounds in DMSO, diluted with phosphate buffer, pH 7.4, at 0.5 μM were carried out with human liver microsomes (0.5 mg/mL). The percentage of organic solvent in the incubations was 1%. The human liver microsomal suspension in phosphate buffer was mixed with NADPH (1 mM) and preheated to 37° C. before test compound was added. Aliquots were taken at 0, 5, 10, 20 and 30 minutes, and reactions were terminated by addition of methanol containing analytical internal standard (IS).
The results were expressed as apparent clearance (Clapp) (mL/min/kg) and hepatic extraction ratio (Eh) (%) calculated from the rate constant (k) (min^−1) of test compound depletion.

Data set [3] has as its target T1, glucocorticoid receptor (GR), recombinant full-length receptor protein (Homo sapiens, UniProt P04150).
T1 construct: 4 nM recombinant, full-length receptor protein was incubated with increasing concentrations of GR ligand; purchased Life Technologies A-15897
T1 sequence (P04150 1-777): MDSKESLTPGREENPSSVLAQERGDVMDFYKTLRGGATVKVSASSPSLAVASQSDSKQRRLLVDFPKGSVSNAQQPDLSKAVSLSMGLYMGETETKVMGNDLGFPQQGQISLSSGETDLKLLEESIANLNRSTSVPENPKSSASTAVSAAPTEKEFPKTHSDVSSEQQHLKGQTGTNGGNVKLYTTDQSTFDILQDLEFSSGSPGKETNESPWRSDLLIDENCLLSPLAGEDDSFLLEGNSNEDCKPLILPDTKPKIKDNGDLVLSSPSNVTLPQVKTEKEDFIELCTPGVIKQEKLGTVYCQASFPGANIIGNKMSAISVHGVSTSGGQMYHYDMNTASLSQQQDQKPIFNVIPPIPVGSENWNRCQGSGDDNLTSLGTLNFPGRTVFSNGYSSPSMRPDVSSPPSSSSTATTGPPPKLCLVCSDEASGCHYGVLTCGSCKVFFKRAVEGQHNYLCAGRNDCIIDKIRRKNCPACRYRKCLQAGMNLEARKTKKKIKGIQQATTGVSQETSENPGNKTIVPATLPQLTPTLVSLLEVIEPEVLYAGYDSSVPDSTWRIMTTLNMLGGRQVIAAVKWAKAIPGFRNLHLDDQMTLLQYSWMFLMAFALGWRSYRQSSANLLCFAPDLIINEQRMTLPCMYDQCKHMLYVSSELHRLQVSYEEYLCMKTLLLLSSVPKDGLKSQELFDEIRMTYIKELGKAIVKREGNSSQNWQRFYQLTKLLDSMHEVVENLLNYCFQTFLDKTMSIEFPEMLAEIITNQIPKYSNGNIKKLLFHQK
Briefly: Glucocorticoid receptor binding assay (fluorescence polarization kit). The conditions noted are these: 4 nM receptor, 2.5 nM Fluormone GS1 tracer, 2h room temperature, read-out: GR binding ABS IC50. On the procedure: Test compounds were diluted in DMSO over seven orders of magnitude, further diluted in assay buffer and distributed into 384-well plates. The sensitivity limit of this assay was 2-4 nM.
Data were processed by sigmoidal curve fitting.
Absolute (Abs) IC50 and Emax were determined from the curve fits.
In general terms: In fluorescence polarisation assays a small probe gives low polarisation when free and higher when bound to something large.

In general, pEC50 refers to the negative decadic logarithm of the EC50, by convention in mol/L. Usually pIC50 stands for the IC50 on a negative log10 scale, so that one unit is a factor of ten.

pEC50, pIC50: −log10 of the molar value.

`C[C@H](NC(=O)c1nccs1)[C@H](Oc1ccc(C(=O)O[C@H]2CCCN(C(=O)[C@H]3COC(=O)C3)C2)cc1)c1ccc(C2CC2)cc1` [Compound 46, [(3S)-1-[(3R)-5-oxotetrahydrofuran-3-carbonyl]-3-piperidyl] 4-[(1R,2S)-1-(4-cyclopropylphenyl)-2-(thiazole-2-carbonylamino)propoxy]benzoate]: in data set [1], the pEC50 is > 7.00. Besides, the “HLM assay Eh (%)” value in data set [2] is “** (50%<extraction ratio (Eh)<90%)”. Besides, in data set [3], the pIC50 is > 7.00.
In the case of `C[C@H](NC(=O)c1ccsn1)[C@H](Oc1ccc(C(=O)N[C@H]2CCCN(C(=O)[C@H]3COC(=O)C3)C2)nc1)c1ccc(C2CC2)cc1` [Compound 4, N-[(1S,2R)-2-(4-cyclopropylphenyl)-1-methyl-2-[[6-[[(3S)-1-[(3R)-5-oxotetrahydrofuran-3-carbonyl]-3-piperidyl]carbamoyl]-3-pyridyl]oxy]ethyl]isothiazole-3-carboxamide], the pEC50 in data set [1] is > 7.00. For the same molecule, in data set [2], the “HLM assay Eh (%)” value is “* (extraction ratio (Eh)>90%)”. Also, the pIC50 in data set [3] is > 7.00.
In the case of `Cc1sncc1C(=O)N[C@@H](C)[C@H](Oc1ccc(C(=O)O[C@H]2CCCN(C(=O)[C@H]3COC(=O)C3)C2)cc1)c1ccc(C2CC2)cc1` [Compound 48, [(3S)-1-[(3R)-5-oxotetrahydrofuran-3-carbonyl]-3-piperidyl] 4-[(1R,2S)-1-(4-cyclopropylphenyl)-2-[(5-methylisothiazole-4-carbonyl)amino]propoxy]benzoate], the pEC50 in data set [1] was > 7.00. For the same molecule, in data set [2], the “HLM assay Eh (%)” value is reported as “* (extraction ratio (Eh)>90%)”. Also, the pIC50 in data set [3] is > 7.00.
Consider `C[C@H](NC(=O)C(C)(F)F)[C@H](Oc1ccc(C(=O)N[C@H]2CCCN(C(=O)[C@H]3COC(=O)C3)C2)nc1)c1ccc(C2CC2)cc1` [Compound 3, 5-[(1R,2S)-1-(4-cyclopropylphenyl)-2-(2,2-difluoropropanoylamino)propoxy]-N-[(3S)-1-[(3R)-5-oxotetrahydrofuran-3-carbonyl]-3-piperidyl]pyridine-2-carboxamide], for which the pEC50 in data set [1] is > 7.00. Further, the “HLM assay Eh (%)” value in data set [2] is on record as “* (extraction ratio (Eh)>90%)”. The pIC50 in data set [3] is > 7.00.
In data set [1], `C[C@H](NC(=O)c1ccnn1C)[C@H](Oc1ccc(C(=O)O[C@H]2CCCN(C(=O)[C@H]3COC(=O)C3)C2)cc1)c1ccc(C2CC2)cc1` [Compound 35, [(3S)-1-[(3R)-5-oxotetrahydrofuran-3-carbonyl]-3-piperidyl] 4-[(1R,2S)-1-(4-cyclopropylphenyl)-2-[(2-methylpyrazole-3-carbonyl)amino]propoxy]benzoate] had a negative logarithm of the EC50 (pEC50) of 6.52 to 7.00. The “HLM assay Eh (%)” value in data set [2] was “* (extraction ratio (Eh)>90%)”. For the same molecule, the pIC50 in data set [3] was > 7.00.
The corresponding values for `C[C@H](NC(=O)c1ncco1)[C@H](Oc1ccc(C(=O)O[C@H]2CCCN(C(=O)[C@H]3COC(=O)C3)C2)cc1)c1ccc(C2CC2)cc1` [Compound 49, [(3S)-1-[(3R)-5-oxotetrahydrofuran-3-carbonyl]-3-piperidyl] 4-[(1R,2S)-1-(4-cyclopropylphenyl)-2-(oxazole-2-carbonylamino)propoxy]benzoate] are > 7.00, “* (extraction ratio (Eh)>90%)” and > 7.00.
With `Cc1ccc([C@@H](Oc2ccc(C(=O)N[C@@H]3CCCN(C(=O)[C@H]4COC(=O)C4)C3)nc2)[C@H](C)NC(=O)C(F)(F)F)cc1` [Compound 59, N-[(3R)-1-[(3R)-5-oxotetrahydrofuran-3-carbonyl]-3-piperidyl]-5-[(1R,2S)-1-(p-tolyl)-2-[(2,2,2-trifluoroacetyl)amino]propoxy]pyridine-2-carboxamide], in data set [1], the pEC50 is > 7.00. Further, the “HLM assay Eh (%)” value in data set [2] is given as “** (50%<extraction ratio (Eh)<90%)”.
As to `C[C@H](NC(=O)C1CCCO1)[C@H](Oc1ccc(C(=O)O[C@H]2CCCN(C(=O)C3COC(=O)C3)C2)cc1)c1ccc(C2CC2)cc1` (stereo in doubt) [Compound 79, [(3S)-1-[(3R)-5-oxotetrahydrofuran-3-carbonyl]-3-piperidyl] 4-[(1R,2S)-1-(4-cyclopropylphenyl)-2-[[(2R)-tetrahydrofuran-2-carbonyl]amino]propoxy]benzoate], the pEC50 in data set [1] was > 7.00. Also, in data set [3], the pIC50 is > 7.00.
Consider `Cc1ccc([C@@H](Oc2ccc(C(=O)N[C@H]3CCCN(C(=O)N[C@@H]4COC(=O)C4)C3)nc2)[C@H](C)NC(=O)C(F)(F)F)cc1` [Compound 71, N-[(3S)-1-[[(3S)-5-oxotetrahydrofuran-3-yl]carbamoyl]-3-piperidyl]-5-[(1R,2S)-1-(p-tolyl)-2-[(2,2,2-trifluoroacetyl)amino]propoxy]pyridine-2-carboxamide], for which the pEC50 in data set [1] was > 7.00. Also, the pIC50 in data set [3] was > 7.00.
In the case of `C[C@H](NC(=O)CO)[C@H](Oc1ccc(C(=O)N[C@H]2CCCN(C(=O)[C@H]3COC(=O)C3)C2)nc1)c1ccc(C2CC2)cc1` [Compound 21, 5-[(1R,2S)-1-(4-cyclopropylphenyl)-2-[(2-hydroxyacetyl)amino]propoxy]-N-[(3S)-1-[(3R)-5-oxotetrahydrofuran-3-carbonyl]-3-piperidyl]pyridine-2-carboxamide], the negative logarithm of the EC50 (pEC50) in data set [1] is > 7.00. Further, the negative-log IC50 (pIC50) in data set [3] is > 7.00.
Consider `Cc1ccc([C@@H](Oc2ccc(C(=O)N[C@H]3CCCN(C(=O)[C@H]4COC(=O)C4)C3)nc2)[C@H](C)NC(=O)C(F)(F)F)cc1` [Compound 1, N-[(3S)-1-[(3R)-5-oxotetrahydrofuran-3-carbonyl]-3-piperidyl]-5-[(1R,2S)-1-(p-tolyl)-2-[(2,2,2-trifluoroacetyl)amino]propoxy]pyridine-2-carboxamide], for which the pEC50 in data set [1] was > 7.00. Moreover, in data set [2], the “HLM assay Eh (%)” value is “* (extraction ratio (Eh)>90%)”.
With `Cc1ccc([C@@H](Oc2ccc(C(=O)N[C@H]3CCCN(C(=O)[C@H]4COC(=O)C4)C3)cc2)[C@H](C)NC(=O)C(F)(F)F)cc1` [Compound 69, N-[(3S)-1-[(3R)-5-oxotetrahydrofuran-3-carbonyl]-3-piperidyl]-4-[(1R,2S)-1-(p-tolyl)-2-[(2,2,2-trifluoroacetyl)amino]propoxy]benzamide], the pEC50 in data set [1] is > 7.00. For the same molecule, the pIC50 in data set [3] was > 7.00.
In data set [1], `Cc1ccc([C@@H](Oc2ccc(C(=O)N[C@H]3CCCN(C(=O)O[C@@H]4COC(=O)C4)C3)nc2)[C@H](C)NC(=O)C(F)(F)F)cc1` [Compound 75, [(3S)-5-oxotetrahydrofuran-3-yl] (3S)-3-[[5-[(1R,2S)-1-(p-tolyl)-2-[(2,2,2-trifluoroacetyl)amino]propoxy]pyridine-2-carbonyl]amino]piperidine-1-carboxylate] had a pEC50 of 6.52 to 7.00. The pIC50 in data set [3] is > 7.00.
The corresponding values for `Cc1ccc([C@@H](Oc2ccc(C(=O)N[C@H]3CCCN(C(=O)O[C@@H]4CCOC4=O)C3)nc2)[C@H](C)NC(=O)C(F)(F)F)cc1` [Compound 74, [(3R)-2-oxotetrahydrofuran-3-yl] (3S)-3-[[5-[(1R,2S)-1-(p-tolyl)-2-[(2,2,2-trifluoroacetyl)amino]propoxy]pyridine-2-carbonyl]amino]piperidine-1-carboxylate] are > 7.00 and > 7.00.
